Assay [1] has as its target T1, mouse RORγ (Mus musculus, UniProt P51450).
T1 construct: mouse, NM_011281.2 and from Ile251 to Lys516; expressed in transfected cells; host or cells: CHO cells (transient co-transfection with pG5-Luc reporter)
T1 sequence (P51450 251-516): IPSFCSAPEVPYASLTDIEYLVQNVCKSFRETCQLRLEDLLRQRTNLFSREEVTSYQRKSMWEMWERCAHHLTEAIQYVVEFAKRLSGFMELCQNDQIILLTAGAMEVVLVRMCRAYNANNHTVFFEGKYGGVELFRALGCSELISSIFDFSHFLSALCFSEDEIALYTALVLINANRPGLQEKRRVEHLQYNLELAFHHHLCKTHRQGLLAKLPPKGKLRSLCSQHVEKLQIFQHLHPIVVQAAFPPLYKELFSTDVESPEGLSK
Description: Luciferase reporter gene assay of inhibitory effect against RORγ transcriptional activity (GAL4-mRORγ plasmid in CHO cells). Type of assay: cell-based. As to conditions: read-out: LUC EC50 mRORg. An outline of the steps: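 CHO cells transiently co-transfected with GAL4-mouse RORγ LBD (Ile251–Lys516) and GAL4-dependent luciferase reporter; eight compound concentrations, 0.1% DMSO, 2 days at 37 °C. Luminescence as %-of-vehicle control; EC50 by curve fit, cytotoxic concentrations excluded.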
For orientation: A reporter such as luciferase makes a cellular process visible.

Assay [2] addresses T2, human RORγ (Homo sapiens, UniProt P51449).
T2 construct: human, NM_005060.3 and from Ser253 to Lys518; expressed in transfected cells; host or cells: CHO cells (transient co-transfection with pG5-Luc reporter)
T2 sequence (P51449 253-518): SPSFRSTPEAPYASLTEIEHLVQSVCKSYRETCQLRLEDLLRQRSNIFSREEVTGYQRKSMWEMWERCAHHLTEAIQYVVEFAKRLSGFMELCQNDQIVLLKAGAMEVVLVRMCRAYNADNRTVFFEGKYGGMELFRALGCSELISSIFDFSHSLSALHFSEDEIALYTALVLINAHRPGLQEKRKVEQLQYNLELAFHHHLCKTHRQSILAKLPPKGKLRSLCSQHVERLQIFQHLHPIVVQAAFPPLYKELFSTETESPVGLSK
Description: Luciferase reporter gene assay of inhibitory effect against RORγ transcriptional activity (GAL4-hRORγ plasmid in CHO cells). It counts as cell-based. Particulars: read-out: LUC EC50 hRORg.

Some results are limits rather than exact numbers.

Turning to `COCC(C)(C)C[C@H]1C[C@@H](c2onc([C@@H](CCC(=O)O)CC(=O)Nc3ccc(C)cc3Cl)c2C2CC2)C1` [Example F-725], the EC50 in assay [1] and in assay [2] was less than 3 µM in each case.

For `CC(C)(CO)C[C@H]1C[C@@H](c2onc([C@@H](CCC(=O)O)CC(=O)Nc3ccc(CO)cc3Cl)c2C2CC2)C1` [Example F-726], the 50% effective concentration (EC50) in assay [1] and in assay [2] was more than 3 µM throughout.

In the case of `Cc1ccc(NC(=O)C[C@H](CCC(=O)O)c2noc([C@H]3C[C@@H](CC(C)(C)C(=O)O)C3)c2C2CC2)c(Cl)c1` [Example F-727], the EC50 in assay [1] and in assay [2] was more than 3 µM in each case.

Turning to `CNC(=O)C(C)(C)C[C@H]1C[C@@H](c2onc([C@@H](CCC(=O)O)CC(=O)Nc3ccc(C)cc3Cl)c2C2CC2)C1` [Example F-728], the concentration giving a half-maximal response (EC50) in assay [1] and in assay [2] was less than 3 µM throughout.

In the case of `Cc1ccc(NC(=O)CCc2noc(CCCC(C)(C)C)c2C2CC2)c(Cl)c1` [Example F-729], the EC50 in assay [1] and in assay [2] was less than 3 µM throughout.

Consider `CC(=O)c1ccc(NC(=O)C[C@H](CCC(=O)O)c2noc([C@H]3C[C@@H](CC(C)(C)CO)C3)c2C2CC2)c(Cl)c1` [Example F-731], for which the EC50 in assay [1] and in assay [2] was more than 3 µM throughout.

Consider `Cc1ccc(NC(=O)CCc2cc([C@H]3C[C@@H](CC(C)(C)C)C3)on2)c(Cl)c1` [Example F-733], for which the EC50 in assay [1] and in assay [2] was less than 3 µM throughout.

For the molecule `Cc1ccc(NC(=O)CCc2noc(C34CC5CC(CC(C5)C3)C4)c2C2CC2)c(Cl)c1` [Example F-734], the 50% effective concentration (EC50) in assay [1] and in assay [2] was less than 3 µM each time.

As for `COc1cc(C)ccc1CNC(=O)CCc1noc(C23CC4CC(CC(C4)C2)C3)c1C1CC1` [Example F-735], the EC50 in assay [1] and in assay [2] was less than 3 µM throughout.

Take `CC(C)(C)C[C@H]1C[C@@H](c2onc([C@@H](CCC(=O)O)CC(=O)NCC3CCOCC3)c2C2CC2)C1` [Example F-736]: the EC50 in assay [1] and in assay [2] was more than 3 µM each time.

With `C=CCCCCc1onc(CCC(=O)Nc2cccc(C=C)c2)c1C1CC1` [Example F-738], the concentration for a half-maximal effect (EC50) in assay [1] and in assay [2] was more than 3 µM each time.

Consider `CC(C)(C[C@H]1C[C@@H](c2onc([C@@H](CCC(=O)O)CC(=O)Nc3ccc(CO)cc3Cl)c2C2CC2)C1)C(=O)O` [Example F-739], for which the half-maximal effective concentration (EC50) in assay [1] and in assay [2] was more than 3 µM each time.

Consider `Cc1ccc(NC(=O)CCc2noc(C(F)(F)c3cc(C(C)(C)C)no3)c2C2CC2)c(Cl)c1` [Example F-740], for which the half-maximal effective concentration (EC50) in assay [1] and in assay [2] was less than 3 µM throughout.

`COc1cc(C)ccc1CNC(=O)CCc1noc(C(F)(F)c2cc(C(C)(C)C)no2)c1C1CC1` [Example F-741]: the 50% effective concentration (EC50) in assay [1] and in assay [2] was less than 3 µM throughout.

For `Cc1ccc(NC(=O)CCc2noc(C(F)(F)c3cc(C(C)(C)C)on3)c2C2CC2)c(Cl)c1` [Example F-745], the EC50 in assay [1] and in assay [2] was less than 3 µM throughout.

For `CC(C)(C[C@H]1C[C@@H](c2onc(C(CCC(=O)O)CC(=O)Nc3ccc(C(=O)O)cc3Cl)c2C2CC2)C1)C(=O)O` (some centres unmarked) [Example F-746], the EC50 in assay [1] and in assay [2] was more than 3 µM each time.

One may read the EC50 as the concentration giving half of the maximal effect.

Source of the values: US20160137639A1, “TRIAZOLE-ISOXAZOLE COMPOUND AND MEDICAL USE THEREOF” (JAPAN TOBACCO INC., priority 2012, published 2016).
